Holding throughout (assay): NCI tumour cell line growth inhibition, 48 h
Experiment [1] concerns 786-0.
Experiment [2] relates to DU-145.
Experiment [3] relates to HCC 2998.
For experiment [4], the system named is HL-60.
Experiment [5] relates to HOP-62.
Experiment [6] has as its system Hs-578T.
For experiment [7], the system named is IGROV-1.
For experiment [8], the system named is M14.
The subject of experiment [9] is NCI-H226.
The test system of experiment [10] is NCI/ADR-RES.
Experiment [11] concerns OVCAR-4.
The subject of experiment [12] is OVCAR-8.
The test system of experiment [13] is PC-3.
Experiment [14] deals with RXF 393.
Experiment [15] concerns SK-MEL-28.
In experiment [16] the test system is SK-OV-3.
Experiment [17] has as its system SN12C.
Experiment [18] relates to SNB-75.
For experiment [19], the system named is TK-10.
Experiment [20] concerns U-251.

Experimental findings from ChEMBL document CHEMBL1201862, “PubChem BioAssay data set” (2004) are described below.

The structures appear in SMILES notation.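 Where inhibition never reached the appropriate level, the endpoint shown equals the highest concentration tested. Otherwise, values were interpolated linearly from a five-concentration, 48-hour dose response in 96-well plates. At the GI50, growth is halved.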 Calls of active or inactive are those of the source. No stated cut-off is given here; in the data, active = GI50 up to about 1.1 µM and inactive = higher. Bounds are passed on as bounds.

Consider `C=C1C(=O)O[C@@H]2/C=C(\C)CC/C=C(/COC(C)=O)C[C@@H](OC(C)=O)[C@@H]12`, for which the GI50 in [1] is 5.18 µM (inactive); in experiment [2] it was 6.79 µM (inactive); in experiment [3] it was 16.5 µM (inactive); in [4], 2.03 µM (inactive); in experiment [5], 22.9 µM (inactive); in experiment [6], 10.4 µM (inactive). Besides, the GI50 was 13.4 µM (inactive) in experiment [7]; 12.6 µM (inactive) in experiment [8]; 19.8 µM (inactive) in [9]; 17.9 µM (inactive) in experiment [10]; 20.2 µM (inactive) in experiment [11]; 14.1 µM (inactive) in experiment [12]. Also, the GI50 in experiment [13] was 16.1 µM (inactive); in experiment [14], 9.38 µM (inactive); in experiment [15] it was 8.99 µM (inactive); in experiment [16], 40.6 µM (inactive); in experiment [17], 11.3 µM (inactive); in experiment [18] it was 50.1 µM (inactive). Moreover, the GI50 in experiment [19] is 7.83 µM (inactive); in experiment [20] it was 18.7 µM (inactive).

As for `O=C(CBr)NCCc1c[nH]c2ccccc12`, the GI50 in [1] is 1.4 µM (inactive); in experiment [2], 2.07 µM (inactive); in experiment [3], 9.95 µM (inactive); in experiment [4], 1.7 µM (inactive); in [5] it was 1.94 µM (inactive); in experiment [6] it was 5.14 µM (inactive). The GI50 in experiment [7] was 1.83 µM (inactive); in experiment [8] it was 1.66 µM (inactive); in experiment [9], 0.655 µM (active); in experiment [10], 2.11 µM (inactive); in [11], 1.79 µM (inactive); in [12], 3.33 µM (inactive). In addition, the GI50 is 1.99 µM (inactive) in [13]; 1.09 µM (active) in [14]; 3.49 µM (inactive) in [15]; 2.67 µM (inactive) in [16]; 1.45 µM (inactive) in experiment [17]; 1.65 µM (inactive) in experiment [18]. The GI50 was 1.86 µM (inactive) in [19] and 1.87 µM (inactive) in [20].

Turning to `C#CCC(O)c1ccc(OC)c(OCc2ccccc2)c1` (centres undefined), the GI50 in [1], in experiment [2], in experiment [3], in experiment [4], in experiment [5] and in [6] was > 100 µM (inactive) in each case. The GI50 in experiment [7] was > 100 µM (inactive); in experiment [8] it was > 100 µM (inactive); in experiment [9], 32.8 µM (inactive); in experiment [10], 82.2 µM (inactive); in [11], > 100 µM (inactive); in [12] it was > 100 µM (inactive). The GI50 was > 100 µM (inactive) in experiment [13]; > 100 µM (inactive) in [14]; > 100 µM (inactive) in experiment [15]; > 100 µM (inactive) in experiment [16]; > 100 µM (inactive) in [17]; 27 µM (inactive) in experiment [18]. Moreover, the GI50 in experiment [19] and in experiment [20] was > 100 µM (inactive) in each case.

`CCOc1ccc(C2Oc3c(cccc3OC)C=C2[N+](=O)[O-])cc1OCC` (centres undefined): the GI50 is 3.04 µM (inactive) in experiment [1]; 14.6 µM (inactive) in [2]; 20.7 µM (inactive) in experiment [3]; 2.14 µM (inactive) in [4]; 12.6 µM (inactive) in experiment [5]; 5.51 µM (inactive) in experiment [6]. The GI50 in experiment [7] is 4.92 µM (inactive); in experiment [8], 2.38 µM (inactive); in experiment [9], 21.9 µM (inactive); in [10] it was 3.15 µM (inactive); in [11], 10.9 µM (inactive); in experiment [12] it was 2 µM (inactive). The GI50 in [13] was 9.33 µM (inactive); in [14], 3 µM (inactive); in [15], 2.24 µM (inactive); in experiment [16] it was 27.5 µM (inactive); in experiment [17] it was 10.8 µM (inactive); in [18], 13.8 µM (inactive). The values for the GI50 in experiment [19] and in experiment [20] were 15.5 µM (inactive) and 6.49 µM (inactive), respectively.

As for `O=c1oc2ccc([N+](=O)[O-])cc2c(Nc2ccc3c(c2)S(=O)(=O)c2ccccc2O3)c1[N+](=O)[O-]`, the GI50 in [1] is > 100 µM (inactive); in experiment [2] it was > 100 µM (inactive); in experiment [3] it was 26.5 µM (inactive); in experiment [4], > 100 µM (inactive); in [5], 49.9 µM (inactive); in experiment [6] it was 72.1 µM (inactive). Further, the GI50 is > 100 µM (inactive) in [7]; 42.9 µM (inactive) in experiment [8]; 35.9 µM (inactive) in experiment [9]; > 100 µM (inactive) in experiment [10]; > 100 µM (inactive) in [11]; > 100 µM (inactive) in experiment [12]. Also, the GI50 was 34.8 µM (inactive) in experiment [13]; 45.4 µM (inactive) in experiment [14]; 46.3 µM (inactive) in experiment [15]; > 100 µM (inactive) in experiment [16]; 80.2 µM (inactive) in experiment [17]; 73.6 µM (inactive) in experiment [18]. The GI50 in [19] is > 100 µM (inactive); in experiment [20] it was 57.3 µM (inactive).

In the case of `CCN1C(=O)C(C)S/C1=N\NC(=O)CSc1nc2ccccc2c(=O)n1CC` (centres undefined), the GI50 in experiment [1], in [2], in experiment [3], in experiment [4], in experiment [5] and in [6] was > 100 µM (inactive) throughout. Further, the GI50 in [7] is > 100 µM (inactive); in [8], > 100 µM (inactive); in experiment [9], > 100 µM (inactive); in experiment [10], > 100 µM (inactive); in experiment [11], 92 µM (inactive); in [12], > 100 µM (inactive). The GI50 in experiment [13], in experiment [14], in [15], in experiment [16], in experiment [17] and in [18] was > 100 µM (inactive) each time. The GI50 in experiment [19] and in [20] was > 100 µM (inactive) in each case.

Take `CC(C)SC1SCC2C(=O)N(C)C3(CC3C)C(=O)OCC(NC(=O)c3nc4ccccc4cc3O)C(=O)NC(C)C(=O)N(C)C1C(=O)N(C)C1(CC1C)C(=O)OCC(NC(=O)c1nc3ccccc3cc1O)C(=O)NC(C)C(=O)N2C` (centres undefined): the GI50 in [1], in [2], in [3], in experiment [4], in [5] and in experiment [6] was < 0.0001 µM (active) in each case. Moreover, the GI50 in experiment [7] is < 0.0001 µM (active); in experiment [8], < 0.0001 µM (active); in experiment [9] it was < 0.0001 µM (active); in experiment [10], 0.00446 µM (active); in experiment [11], < 0.0001 µM (active); in experiment [12], < 0.0001 µM (active). Further, the GI50 in experiment [13], in experiment [14], in experiment [15], in experiment [16], in experiment [17] and in experiment [18] was < 0.0001 µM (active) each time. In addition, the GI50 in experiment [19] and in experiment [20] was < 0.0001 µM (active) throughout.

Consider `O=C1C=C(OCCCl)C(=O)c2c(O)ccc(O)c21`, for which the GI50 in experiment [1] is 1.62 µM (inactive); in experiment [2], 0.29 µM (active); in experiment [3] it was 1.63 µM (inactive); in [4], 1.11 µM (active); in [5], 0.589 µM (active); in experiment [6] it was 3.98 µM (inactive). Moreover, the GI50 in [7] was 1.81 µM (inactive); in [8] it was 0.177 µM (active); in experiment [9], 2.26 µM (inactive); in experiment [10], 2.56 µM (inactive); in experiment [11], 1.64 µM (inactive); in [12], 1.94 µM (inactive). For the same compound, the GI50 in [13] is 1.82 µM (inactive); in [14], 1.92 µM (inactive); in experiment [15], 0.172 µM (active); in [16], 1.71 µM (inactive); in experiment [17] it was 0.225 µM (active); in experiment [18], 0.405 µM (active). The GI50 in [19] was 2.38 µM (inactive); in experiment [20], 1.84 µM (inactive).

On to `C=CC(=O)N1C/C(=C\c2ccc(OC)cc2)C(=O)/C(=C/c2ccc(OC)cc2)C1`, for which the GI50 in experiment [1] is 1.74 µM (inactive); in experiment [2], 3.91 µM (inactive); in experiment [3], 1.5 µM (inactive); in experiment [4], 0.69 µM (active); in experiment [5], 2.55 µM (inactive); in experiment [6], 3.34 µM (inactive). For the same compound, the GI50 in experiment [7] is 2.35 µM (inactive); in experiment [8], 2.15 µM (inactive); in [9] it was 2 µM (inactive); in experiment [10], 3.12 µM (inactive); in [11], 2.36 µM (inactive); in experiment [12] it was 2.88 µM (inactive). For the same compound, the GI50 in experiment [13] is 1.83 µM (inactive); in experiment [14] it was 1.61 µM (inactive); in [15] it was 2.81 µM (inactive); in experiment [16], 3.48 µM (inactive); in experiment [17], 2.49 µM (inactive); in [18], 6.05 µM (inactive). Besides, the GI50 was 3.66 µM (inactive) in experiment [19] and 1.97 µM (inactive) in experiment [20].

Take `Oc1ccc(-c2nc3cc(C(F)(F)F)ccc3n2CC2CCCN3CCCCC23)cc1` (centres undefined): the GI50 was 17 µM (inactive) in [1]; 17.1 µM (inactive) in [2]; 9.75 µM (inactive) in [3]; 3.01 µM (inactive) in experiment [4]; 12.1 µM (inactive) in [5]; 15.8 µM (inactive) in [6]. Besides, the GI50 in [7] was 12.7 µM (inactive); in [8] it was 16.3 µM (inactive); in experiment [9] it was 16.3 µM (inactive); in [10], 16.5 µM (inactive); in [11], 15.1 µM (inactive); in experiment [12] it was 16 µM (inactive). For the same compound, the GI50 in [13] was 14.1 µM (inactive); in experiment [14] it was 15.5 µM (inactive); in [15], 16.1 µM (inactive); in experiment [16], 12.6 µM (inactive); in [18] it was 14.9 µM (inactive); in experiment [19], 16.9 µM (inactive). Besides, in [20], the GI50 was 14.8 µM (inactive).
